In patent US8618101B2, “N-((1R,2S,5R)-5-(tert-butylamino)-2-((S)-3-(7-tert-butylpyrazolo[1,5-a][1,3,5]triazin-4-ylamino)-2-oxopyrrolidin-1-yl)cyclohexyl)acetamide, a dual modulator of chemokine receptor activity, crystalline forms and processes” (Bristol-Myers Squibb Company, priority 2009, dated 2013):

Legend:
CCR-5 [1] = target: T1, CCR-5 (Homo sapiens, UniProt P51681); experiment: T cell CCR-5 binding assay, 125I-MIP-1β tracer; conditions: human peripheral T cells
T1 construct: human peripheral T cells was used as a source of CCR-5; endogenous in cells; host or cells: human peripheral T cells from donors pre-screened for high CCR-5 expression
Excerpt: The procedure used for T cell CCR-5 binding assay was similar to those for hPBMC CCR-2 binding assay except that human peripheral T cells was used as a source of CCR-5 (see below) and ^125I-MIP-1β as a tracer (Amersham).
(§1) Therefore, blood donors were pre-screened for high T-cell expression of CCR-5. hPBMCs were first isolated from human whole blood by standard protocol with Ficoll-Hypaque. Flow cytometric analysis was then used to measure CCR-5 expression on T cells following staining with anti-CCR-5 antibody plus anti-CD4 antibody or anti-CD8 antibody. Those blood donors in which >5% peripheral T cells (CD4^+ and CD8^+) express CCR-5 were requested to provide blood again for isolation of PBMCs and, subsequently, of T cells using a standard E-rosetting technique which relies on the unique ability of T cells to bind to sheep red blood cells (RBCs).

[2] = Parallel Artificial Membrane Permeability Assay (PAMPA); format: in vitro ADME; conditions: pH 7.4
Excerpt: The Parallel Artificial Membrane Permeability Assay (PAMPA) consists of a specially formulated lecithin-based lipid combination referred to as the gastrointestinal tract (GIT) lipid. The GIT lipid is used to form a membrane in a sandwich plate assembly similar to that used in the Caco-2 assays. The GIT lipid closely resembles in vivo membrane composition and performance as measured by standard compounds that are known to be passively absorbed in humans. […] The rate of passage of compounds through the PAMPA membrane is used to determine a permeability coefficient (Pc), which can be related to the in vivo passive permeability of the compound.
The permeability coefficient (Pc) of a particular compound is examined in a pH-dependent setting with apical and basolateral pH of 7.4. All experiments are conducted in triplicate determinations.
The PAMPA assay plate (donor side and acceptor side) was combined and allowed to incubate at room temperature for 4 hours. […] The donor, acceptor, reference, and blank plates were read in the SPECTRAMAX® UV plate reader. Data was captured by the pION software, which analyzes the spectra and generates Pc values.

human CCR-2 [3] = target: T2, human CCR-2 (Homo sapiens, UniProt P41597); experiment: CCR-2 calcium mobilization, THP-1 cells; format: cell-based; conditions: MCP-1 10 nM, read-out: CCR-2 Ca2+ Flux IC50
T2 sequence (P41597 1-360 isoform P41597-2): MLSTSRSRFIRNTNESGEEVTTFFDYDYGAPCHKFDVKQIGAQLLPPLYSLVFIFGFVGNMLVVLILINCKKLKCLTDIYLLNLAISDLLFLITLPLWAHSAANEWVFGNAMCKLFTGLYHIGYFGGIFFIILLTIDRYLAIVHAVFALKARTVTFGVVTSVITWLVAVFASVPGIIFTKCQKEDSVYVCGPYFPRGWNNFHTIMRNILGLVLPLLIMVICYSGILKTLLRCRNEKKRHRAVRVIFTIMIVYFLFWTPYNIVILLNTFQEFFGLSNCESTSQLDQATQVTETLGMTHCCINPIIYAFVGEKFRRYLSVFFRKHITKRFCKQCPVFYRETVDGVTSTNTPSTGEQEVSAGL
Protocol: All conditions were tested in duplicate.

CCR-5 [4] = target: T1, CCR-5; experiment: CCR-5 chemotaxis, MIP-1β-induced, peripheral T cells; format: cell-based
Excerpt: as §1
A similar procedure to that set forth above was adopted except that isolated peripheral T cells was used as CCR-5-expressing cells and MIP-1β (50 nM, PeproTech Inc.) was the ligand.

[5] = Single-dose pharmacokinetics in rats; conditions: male, Sprague-Dawley, rat
Protocol: Male Sprague-Dawley rats (250-300 g) were used for the pharmacokinetic studies. Rats were fasted overnight prior to PO dosing and fed 4 h post dose. Blood samples (˜0.3 mL) were collected from the jugular vein into K2EDTA-containing tubes and then centrifuged at 4° C. (1500-2000×g) to obtain plasma. […] Serial blood samples were obtained at 0.17 (for IV only), 0.25, 0.5, 0.75, 1, 2, 4, 6, 8, and 24 h post dose. Plasma samples, obtained by centrifugation at 4° C. (1500-2000×g), were stored at −20° C. until analysis by LC/MS/MS.
(§2) The pharmacokinetic parameters were obtained by non-compartmental analysis of plasma concentration vs. time data (Kinetica software, Version 4.2, InnaPhase Corporation, Philadelphia, Pa.). The peak concentration (Cmax) and time for Cmax were recorded directly from experimental observations. The area under the curve from time zero to the last sampling time (AUC(0-T)) was calculated using a combination of linear and log trapezoidal summations. The total plasma clearance (CLTp), steady-state volume of distribution (Vss), apparent elimination half-life (T½) and mean residence time (MRT) were estimated after IV administration. Estimations of T½ was made using a minimum of 3 time points with quantifiable concentrations. The absolute oral bioavailability (F) was estimated as the ratio of dose-normalized AUC values following oral and IV doses.

human CCR-2 [6] = target: T2, human CCR-2; experiment: CCR-2 chemotaxis, MCP-1-induced, THP-1 cells; format: cell-based
Protocol: The human CCR-2 chemotaxis assay was conducted with the human monocytic cell line, THP-1. THP-1 cells were first labeled with the fluorescent dye Calcein-AM in phenol red-free, BSA-free RPMI-1640 (pH 7.4) at 37° C. for 30 minutes with gentle mixing every 15 minutes. The labeled cells were then washed and re-suspended at 1×10^5/ml in chemotaxis buffer (phenol red-free RPMI-1640, 0.1% BSA, pH 7.4). The test compound was diluted in chemotaxis buffer such that the final assay concentration ranged from 0.01 nM to 1 μM. The ligand MCP-1 (PeproTech Inc.) was diluted to 20 nM in chemotaxis buffer. To perform the assay, an equal volume of test compound dilutions was mixed with an equal volume of labeled THP-1 cells (Mixture 1), and an equal volume of test compound dilutions was mixed with an equal volume of diluted MCP-1 ligand (Mixture 2). Both mixtures were incubated independently at 37° C. for 10 minutes followed by gentle mixing. MCP-1-induced chemotaxis was then measured in a chemotaxis plate (Becton Dickinson) by placing 50 μl of Mixture 1 in the top chamber and 225 μl of Mixture 2 in the bottom chamber. The plate was covered with a lid and incubated at 37° C. for 30 minutes. 30 minutes later, the plate was read on a CYTOFLUOR®. All conditions were tested in duplicate. […]

CCR-5 [7] = target: T1, CCR-5; experiment: CCR-5 GTP-γS exchange, CCR-5/HT1080 membranes; format: biochemical; conditions: MIP-1α/LD78β ligand
Excerpt: A similar procedure to the CCR-2 GTP-γS exchange procedure set forth above was adopted except that MIP-1α/LD78β was the ligand and the cell line was CCR-5/HT1080. MIP-1α/LD78β was used as the CCR-5 ligand because it provided a bigger signal to noise ratio than MIP-1β.

[8] = Single-dose pharmacokinetics in monkeys; conditions: male, cynomolgus monkey, 1 mg/kg
Protocol: The pharmacokinetics of various test compounds were evaluated in male cynomolgus monkeys in a crossover-design. Monkeys were fasted overnight prior to PO dosing and fed 4 h post dose. A group of 1-3 animals (3 to 5 kg) received the compound by IV infusion (over 10 min) via a femoral vein and by oral gavage, with a 1-week washout between treatments. Serial blood samples (˜0.3 mL) were collected from a femoral artery at 0.17 (IV only), 0.25, 0.5, 0.75, 1, 2, 4, 6, 8, and 24 h post dose, and centrifuged at 4° C. (1500-2000×g) to obtain plasma. Samples were stored at −20° C. until analysis by LC/MS/MS.
as §2

CCR-2 = CCR-2 (Homo sapiens, UniProt P41597); experiment: CCR-2 GTP-γS exchange, HT1080 membranes; format: biochemical; conditions: 1 nM MCP-1
Protocol: Each reaction (200 μL) contained 20 mM Na-HEPES, 10 mM MgCl2, 50 mM NaCl, 0.1% BSA (Sigma), 1% DMSO, and 10 μM GDP (pH 7.4). […] Reactions were incubated for 90 minutes hour at room temperature and [^35S]-GTPγS/Gαi complexes were collected on a Millipore MAFC 96 well filter plate. […] Data were analyzed using the ligand binding software from Graphpad Prism 4.

CCR-5 [9] = target: T1, CCR-5; experiment: CCR-5 calcium mobilization, HT1080/CCR-5 cells; format: cell-based; conditions: MIP-1β 50 nM, read-out: CCR-5 ^2+ Flux IC50

T1 sequence (P51681 whole entry): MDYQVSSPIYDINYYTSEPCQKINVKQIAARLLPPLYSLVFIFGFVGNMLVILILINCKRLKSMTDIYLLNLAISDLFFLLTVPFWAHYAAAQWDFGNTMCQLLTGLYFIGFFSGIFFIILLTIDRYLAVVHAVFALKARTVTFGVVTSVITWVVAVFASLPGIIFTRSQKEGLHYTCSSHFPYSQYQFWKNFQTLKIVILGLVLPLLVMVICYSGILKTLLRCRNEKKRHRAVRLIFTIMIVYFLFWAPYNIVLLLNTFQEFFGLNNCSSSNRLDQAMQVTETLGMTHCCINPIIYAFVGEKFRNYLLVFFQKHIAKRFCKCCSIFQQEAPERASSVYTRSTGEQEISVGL
CCR-2, sequence (P41597 whole entry): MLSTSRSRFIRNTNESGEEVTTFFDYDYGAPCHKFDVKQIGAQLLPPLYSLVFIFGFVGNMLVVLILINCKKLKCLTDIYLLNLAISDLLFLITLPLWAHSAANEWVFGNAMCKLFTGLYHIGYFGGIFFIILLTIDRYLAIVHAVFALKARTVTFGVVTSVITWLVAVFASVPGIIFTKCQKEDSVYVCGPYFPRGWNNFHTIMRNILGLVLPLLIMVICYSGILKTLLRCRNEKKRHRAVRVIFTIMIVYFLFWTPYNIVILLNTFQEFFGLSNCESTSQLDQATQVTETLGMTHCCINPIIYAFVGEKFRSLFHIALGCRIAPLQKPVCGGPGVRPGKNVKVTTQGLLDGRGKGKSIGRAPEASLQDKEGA

CC(=O)N[C@@H]1C[C@H](NC(C)(C)C)CC[C@@H]1N1CC[C@H](Nc2ncnc3cc(C(C)(C)C)nn23)C1=O [Example 1, N-((1R,2 S,5R)-5-(tert-Butylamino)-2-((S)-3-(7-tert-butylpyrazolo[1,5-a][1,3,5]triazin-4-ylamino)-2-oxopyrrolidin-1-yl)cyclohexyl)acetamide]
IC50 (CCR-5 [1]): 3.6 ± 1.8 nM
Papp at 4 h, 100 µM [2]: 33.6 ×10⁻⁶ cm/s
IC50 (human CCR-2 [3]): 2.9 ± 1.5 nM
IC50 (CCR-5 [4]): 1.1 ± 0.6 nM
clearance ([5]; in vivo, 2 mg/kg): 49.7 mL/min/kg
bioavailability ([5]; in vivo, 10 mg/kg): 94%
AUC ([5]; plasma, oral, 10 mg/kg): 6.5 µM·h
IC50 (human CCR-2 [6]): 0.8 ± 0.8 nM
IC50 (CCR-5 [7]): 6.1 ± 1.2 nM
bioavailability ([8]; in vivo): 63%
clearance ([8]; plasma, intravenous): 16.4 mL/min/kg
AUC ([8]; plasma, oral): 1.3 µM·h
IC50 (CCR-2): 3.5 ± 1.9 nM
IC50 (CCR-5 [9]): 2 ± 1.4 nM
